{"source": "ChEMBL document CHEMBL1781972", "about": "“Daphnane-type diterpenoids from Trigonostemon howii” (J Nat Prod, 2011)", "tested_on": "HL-60", "experiment": "Cytotoxicity against human HL60 cells after 72 hrs by MTT method", "format": "functional, cell-based", "conditions": "HL-60, 72 h", "data": [{"smiles": "C=C(C)[C@@]1(O)[C@@H]2OC3(c4ccccc4)O[C@H]1[C@@H](C)[C@@]1(O3)[C@H]2[C@H](OC(C)=O)[C@@](C)(OC(=O)c2ccccc2)[C@@H](O)[C@@]2(OC(C)=O)[C@H]1C[C@H](C)[C@@H]2OC(C)=O", "note": "[TRIGOHOWNIN A]", "values": [{"measurement": "IC50", "result": 17, "unit": "µM"}]}, {"smiles": "C=C(C)[C@@]12OC3(c4ccccc4)O[C@@H]1[C@@H]1[C@H](OC(C)=O)[C@@](C)(O)[C@@H](OC(C)=O)[C@@]4(OC(=O)c5ccccc5)[C@@H](C[C@H](C)[C@@H]4OC(C)=O)[C@@]1(O3)[C@H](C)[C@@H]2OC(C)=O", "note": "[TRIGOHOWNIN D]", "values": [{"measurement": "IC50", "result": 9.3, "unit": "µM"}]}]}
